Biological target: APJ receptor (Homo sapiens (Human), UniProt P35414)
Experiment: [35S]GTPγS binding assay on membranes from CHO cells stably expressing human APJ receptor
Type: biochemical
Conditions: membranes of CHO cells stably expressing human APJ receptor, means of several independent experiments, read-out: Activity hAPJ SPA EC50 IP
In short: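 Membranes from CHO cells stably expressing human APJ were incubated with 0.2 nM [35S]GTPγS and ligands for 90 min at RT in 20 mM HEPES pH 7.5, 5 mM MgCl2, 200 mM NaCl, 3 μM GDP, 0.1% BSA with WGA PS beads. Nonspecific binding was set with 100 μM GTPγS. EC50 came from non-linear regression.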

APJ receptor, sequence (P35414 whole entry): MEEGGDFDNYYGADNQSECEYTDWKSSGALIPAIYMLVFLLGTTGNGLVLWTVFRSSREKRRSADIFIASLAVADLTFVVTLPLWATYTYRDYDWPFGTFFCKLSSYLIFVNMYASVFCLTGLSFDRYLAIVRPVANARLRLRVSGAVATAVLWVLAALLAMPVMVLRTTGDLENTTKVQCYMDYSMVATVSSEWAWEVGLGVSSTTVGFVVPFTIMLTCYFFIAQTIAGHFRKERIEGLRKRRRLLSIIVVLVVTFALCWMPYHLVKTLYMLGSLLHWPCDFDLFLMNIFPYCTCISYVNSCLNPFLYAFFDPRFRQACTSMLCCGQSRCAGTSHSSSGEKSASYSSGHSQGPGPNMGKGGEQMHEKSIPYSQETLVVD

Row | SMILES | EC50 [nM]
1 | COc1cccc(OC)c1-n1c(NS(=O)(=O)[C@@H]2CCC[C@H]2c2ncc(F)cn2)nnc1-c1ccc(C)o1 (single isomer, unassigned) [Example 101.0, (1R,2S)—N-(4-(2,6-Dimethoxyphenyl)-5-(5-methyl-2-furanyl)-4H-1,2,4-triazol-3-yl)-2-(5-fluoro-2-pyrimidinyl)cyclopentanesulfonamide or (1S,2R)—N-(4-(2,6-dimethoxyphenyl)-5-(5-methyl-2-furanyl)-4H-1,2,4-triazol-3-yl)-2-(5-fluoro-2-pyrimidinyl)cyclopentanesulfonamide] | 2
2 | COc1cccc(OC)c1-n1c(NS(=O)(=O)[C@@H]2CCC[C@H]2c2ncc(F)cn2)nnc1-c1ccco1 (single isomer, unassigned) [Example 104.0, (1R,2S)—N-(4-(2,6-Dimethoxyphenyl)-5-(2-furanyl)-4H-1,2,4-triazol-3-yl)-2-(5-fluoro-2-pyrimidinyl)cyclopentanesulfonamide or (1S,2R)—N-(4-(2,6-dimethoxyphenyl)-5-(2-furanyl)-4H-1,2,4-triazol-3-yl)-2-(5-fluoro-2-pyrimidinyl)cyclopentanesulfonamide] | 22
3 | COc1cccc(OC)c1-n1c(NS(=O)(=O)[C@@H](C)[C@H](OC)c2ncc(F)cn2)nnc1-c1ccc(C)o1 (single isomer, unassigned) [Example 116.0, (1R,2S)-N-(4-(2,6-dimethoxyphenyl)-5-(5-methylfuran-2-yl)-4H-1,2,4-triazol-3-yl)-1-(5-fluoropyrimidin-2-yl)-1-methoxypropane-2-sulfonamide or (1S,2R)-N-(4-(2,6-dimethoxyphenyl)-5-(5-methylfuran-2-yl)-4H-1,2,4-triazol-3-yl)-1-(5-fluoropyrimidin-2-yl)-1-methoxypropane-2-sulfonamide] | 0.056
4 | CCO[C@@H](c1ncc(C)cn1)[C@H](C)S(=O)(=O)Nc1nnc(-c2ccc(C)o2)n1-c1c(OC)cccc1OC (single isomer, unassigned) [Example 117.0, (1S,2S)-N-(4-(2,6-dimethoxyphenyl)-5-(5-methylfuran-2-yl)-4H-1,2,4-triazol-3-yl)-1-ethoxy-1-(5-methylpyrimidin-2-yl)propane-2-sulfonamide or (1R,2R)-N-(4-(2,6-dimethoxyphenyl)-5-(5-methylfuran-2-yl)-4H-1,2,4-triazol-3-yl)-1-ethoxy-1-(5-methylpyrimidin-2-yl)propane-2-sulfonamide] | 0.061
5 | COc1cccc(OC)c1-n1c(NS(=O)(=O)[C@H](C)[C@H](OC)c2ncc(F)cn2)nnc1-c1ccc(C)o1 (single isomer, unassigned) [Example 122.0, (1R,2R)-N-(4-(2,6-dimethoxyphenyl)-5-(5-methylfuran-2-yl)-4H-1,2,4-triazol-3-yl)-1-(5-fluoropyrimidin-2-yl)-1-methoxypropane-2-sulfonamide or (1S,2S)-N-(4-(2,6-dimethoxyphenyl)-5-(5-methylfuran-2-yl)-4H-1,2,4-triazol-3-yl)-1-(5-fluoropyrimidin-2-yl)-1-methoxypropane-2-sulfonamide] | 0.22
6 | CCO[C@H](c1ncc(C)cn1)[C@@H](C)S(=O)(=O)Nc1nnc(-c2ccc(C)o2)n1-c1c(OC)cccc1OC (single isomer, unassigned) [Example 130.0, (1R,2R)-N-(4-(2,6-dimethoxyphenyl)-5-(5-methylfuran-2-yl)-4H-1,2,4-triazol-3-yl)-1-ethoxy-1-(5-methylpyrimidin-2-yl)propane-2-sulfonamide or (1S,2S)-N-(4-(2,6-dimethoxyphenyl)-5-(5-methylfuran-2-yl)-4H-1,2,4-triazol-3-yl)-1-ethoxy-1-(5-methylpyrimidin-2-yl)propane-2-sulfonamide] | 3.5
7 | COc1cccc(OC)c1-n1c(NS(=O)(=O)[C@@H](C)[C@@H](OC)c2ncc(F)cn2)nnc1-c1ccc(C)o1 (single isomer, unassigned) [Example 132.0, (1S,2S)-N-(4-(2,6-dimethoxyphenyl)-5-(5-methylfuran-2-yl)-4H-1,2,4-triazol-3-yl)-1-(5-fluoropyrimidin-2-yl)-1-methoxypropane-2-sulfonamide or (1R,2R)-N-(4-(2,6-dimethoxyphenyl)-5-(5-methylfuran-2-yl)-4H-1,2,4-triazol-3-yl)-1-(5-fluoropyrimidin-2-yl)-1-methoxypropane-2-sulfonamide] | 6.8
8 | CC[C@H](Cc1ncc(F)cn1)S(=O)(=O)Nc1nnc(-c2ccc(C)o2)n1-c1c(OC)cccc1OC (single isomer, unassigned) [Example 134.0, (R)—N-(4-(2,6-dimethoxyphenyl)-5-(5-methylfuran-2-yl)-4H-1,2,4-triazol-3-yl)-1-(5-fluoropyrimidin-2-yl)butane-2-sulfonamide or (S)—N-(4-(2,6-dimethoxyphenyl)-5-(5-methylfuran-2-yl)-4H-1,2,4-triazol-3-yl)-1-(5-fluoropyrimidin-2-yl)butane-2-sulfonamide] | 10
9 | CC[C@H](Cc1ncc(F)cn1)S(=O)(=O)Nc1nnc(-c2ccco2)n1-c1c(OC)cccc1OC (single isomer, unassigned) [Example 136.0, (R)—N-(4-(2,6-Dimethoxyphenyl)-5-(furan-2-yl)-4H-1,2,4-triazol-3-yl)-1-(5-fluoropyrimidin-2-yl)butane-2-sulfonamide or (S)—N-(4-(2,6-dimethoxyphenyl)-5-(furan-2-yl)-4H-1,2,4-triazol-3-yl)-1-(5-fluoropyrimidin-2-yl)butane-2-sulfonamide] | 19
10 | COc1cccc(OC)c1-n1c(NS(=O)(=O)C[C@H](O)c2ccc(Cl)cc2S(C)(=O)=O)nnc1-c1ccc(C)o1 (single isomer, unassigned) [Example 144.0, (2R)-2-(4-Chloro-2-(methylsulfonyl)phenyl)-N-(4-(2,6-dimethoxyphenyl)-5-(5-methyl-2-furanyl)-4H-1,2,4-triazol-3-yl)-2-hydroxyethanesulfonamide or (2S)-2-(4-chloro-2-(methylsulfonyl)phenyl)-N-(4-(2,6-dimethoxyphenyl)-5-(5-methyl-2-furanyl)-4H-1,2,4-triazol-3-yl)-2-hydroxyethanesulfonamide] | 0.073

Other lines, results leading:

Row | EC50 [nM] | SMILES
11 | 0.084 | CCO[C@H](c1ncc(C)cn1)[C@H](C)S(=O)(=O)Nc1nnc(-c2ccc(C)o2)n1-c1c(OC)cccc1OC (single isomer, unassigned) [Example 118.0]
12 | 0.24 | COc1cccc(OC)c1-n1c(NS(=O)(=O)C[C@@H](C)c2ncc(F)cn2)nnc1-c1ccc(C)o1 (single isomer, unassigned) [Example 123.0, (S)—N-(4-(2,6-Dimethoxyphenyl)-5-(5-methylfuran-2-yl)-4H-1,2,4-triazol-3-yl)-2-(5-fluoropyrimidin-2-yl)propane-1-sulfonamide or (R)—N-(4-(2,6-dimethoxyphenyl)-5-(5-methylfuran-2-yl)-4H-1,2,4-triazol-3-yl)-2-(5-fluoropyrimidin-2-yl)propane-1-sulfonamide]
13 | 0.45 | COc1cccc(OC)c1-n1c(NS(=O)(=O)C[C@@H](C)c2ncc(F)cn2)nnc1-c1ccc(C)o1 (single isomer, unassigned) [Example 126.0, (S)—N-(4-(2,6-Dimethoxyphenyl)-5-(5-methylfuran-2-yl)-4H-1,2,4-triazol-3-yl)-2-(5-fluoropyrimidin-2-yl)propane-1-sulfonamide or (R)—N-(4-(2,6-dimethoxyphenyl)-5-(5-methylfuran-2-yl)-4H-1,2,4-triazol-3-yl)-2-(5-fluoropyrimidin-2-yl)propane-1-sulfonamide]
14 | 0.072 | COc1cccc(OC)c1-n1c(NS(=O)(=O)[C@H](C)[C@@H](OC)c2ccc(C#N)cc2C#N)nnc1-c1ccc(C)o1 (single isomer, unassigned) [Example 143.0, (1S,2R)-1-(2,4-Dicyanophenyl)-N-(4-(2,6-dimethoxyphenyl)-5-(5-methyl-2-furanyl)-4H-1,2,4-triazol-3-yl)-1-methoxy-2-propanesulfonamide or (1R,2S)-1-(2,4-dicyanophenyl)-N-(4-(2,6-dimethoxyphenyl)-5-(5-methyl-2-furanyl)-4H-1,2,4-triazol-3-yl)-1-methoxy-2-propanesulfonamide]
15 | 0.13 | COc1cnc([C@@H](O)[C@H](C)S(=O)(=O)Nc2nnc(-c3ccc(C)o3)n2-c2c(OC)cccc2OC)cn1 (single isomer, unassigned) [Example 146.0, (1R, 2S)—N-(4-(2,6-Dimethoxyphenyl)-5-(5-methyl-2-furanyl)-4H-1,2,4-triazol-3-yl)-1-hydroxy-1-(5-methoxy-2-pyrazinyl)-2-propanesulfonamide or (1S, 2R)—N-(4-(2,6-dimethoxyphenyl)-5-(5-methyl-2-furanyl)-4H-1,2,4-triazol-3-yl)-1-hydroxy-1-(5-methoxy-2-pyrazinyl)-2-propanesulfonamide]
16 | 0.22 | COC[C@H]1CCCC(=O)N1C[C@@H](C)S(=O)(=O)Nc1nnc(-c2ccc(C)o2)n1-c1c(OC)cccc1OC (single isomer, unassigned) [Example 150.0]
17 | 0.26 | COc1cccc(OC)c1-n1c(NS(=O)(=O)[C@@H](C)[C@@H](O)c2ccc(Cl)cc2S(C)(=O)=O)nnc1-c1ccc(C)o1 (single isomer, unassigned) [Example 153.0, (1R,2R)-1-(4-Chloro-2-(methylsulfonyl)phenyl)-N-(4-(2,6-dimethoxyphenyl)-5-(5-methyl-2-furanyl)-4H-1,2,4-triazol-3-yl)-1-hydroxy-2-propanesulfonamide or (1S,2S)-1-(4-chloro-2-(methylsulfonyl)phenyl)-N-(4-(2,6-dimethoxyphenyl)-5-(5-methyl-2-furanyl)-4H-1,2,4-triazol-3-yl)-1-hydroxy-2-propanesulfonamide]

— patent US10736883B2, “Triazole furan compounds as agonists of the APJ receptor” (AMGEN INC., priority 2016, dated 2020)
